# Target: T1, Sodium-dependent dopamine transporter (Homo sapiens, UniProt Q01959)
# Test: Displacement of [3H]WIN35428 from human cloned DAT receptor expressed in human HEK293 cells
# Assay type: cell-based
# Conditions: read-out: Ki
# T1 sequence (Q01959 whole entry): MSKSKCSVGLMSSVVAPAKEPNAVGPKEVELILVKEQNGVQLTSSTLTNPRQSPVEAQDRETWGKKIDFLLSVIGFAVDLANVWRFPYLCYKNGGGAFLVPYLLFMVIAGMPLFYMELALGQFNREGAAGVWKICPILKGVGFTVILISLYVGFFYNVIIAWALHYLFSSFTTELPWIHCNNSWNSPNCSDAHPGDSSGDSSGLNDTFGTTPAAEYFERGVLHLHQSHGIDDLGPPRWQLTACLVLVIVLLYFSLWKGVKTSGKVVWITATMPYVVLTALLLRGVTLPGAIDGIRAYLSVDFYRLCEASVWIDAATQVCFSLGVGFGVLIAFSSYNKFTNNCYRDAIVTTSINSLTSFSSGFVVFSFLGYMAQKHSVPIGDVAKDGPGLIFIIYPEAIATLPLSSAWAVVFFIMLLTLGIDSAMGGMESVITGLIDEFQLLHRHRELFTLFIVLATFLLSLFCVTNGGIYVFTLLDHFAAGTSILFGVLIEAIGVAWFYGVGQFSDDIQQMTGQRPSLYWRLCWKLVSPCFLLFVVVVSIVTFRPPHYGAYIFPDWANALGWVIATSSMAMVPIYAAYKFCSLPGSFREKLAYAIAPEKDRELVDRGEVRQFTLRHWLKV
row,SMILES,Ki [nM]
1,COC(=O)[C@H]1[C@@H](c2ccc(C)cc2)C[C@@H]2CC[C@H]1N2C/C(I)=C/C(F)(F)F,0.87
2,COC(=O)[C@H]1[C@@H](c2ccc(C)cc2)C[C@@H]2CC[C@H]1N2C/C=C/I,17
3,COC(=O)[C@H]1[C@@H](c2ccc(C)cc2)C[C@@H]2CC[C@H]1N2C/C=C(\I)C(F)(F)F,116

# Same assay, conditions: read-out: pKi (converted)
row,SMILES,Ki [nM]
1,CCc1ccc([C@H]2C[C@@H]3CC[C@H]([C@H]2C(=O)OC)N3C)cc1I,339
2,COC(=O)[C@H]1[C@@H](c2ccc(Cl)c(Cl)c2)C[C@@H]2CC[C@H]1N2C/C=C/I,28.8
3,COC(=O)[C@H]1[C@@H](c2ccc(C)cc2)C[C@@H]2CC[C@H]1N2C,32.4
4,COC(=O)[C@H]1[C@@H](c2ccc(I)cc2)C[C@@H]2CC[C@H]1N2C/C=C/CF,0.501
5,CC(C)OC(=O)[C@H]1[C@@H](c2ccc(Cl)c(Cl)c2)C[C@@H]2CC[C@H]1N2C,18.2
6,COC(=O)[C@H]1[C@@H](c2ccc(F)cc2)C[C@@H]2CC[C@H]1N2C/C=C/CF,9.55
7,C/C=C/CN1[C@H]2CC[C@@H]1[C@@H](C(=O)OC)[C@@H](c1ccc(I)cc1)C2,15.1
8,O=C(OCCF)[C@H]1[C@@H](c2ccc(/C=C\I)cc2)C[C@@H]2CC[C@H]1N2,13.2
9,COC(=O)[C@H]1[C@@H](c2ccc(I)cc2)C[C@@H]2CC[C@H]1N2CCCF [IOFLUPANE],28.2
10,CCCc1ccc([C@H]2C[C@@H]3CC[C@@H](N3)[C@H]2C(=O)OC)cc1I,501
11,CCCc1ccc([C@H]2C[C@@H]3CC[C@H]([C@H]2C(=O)OC)N3C)cc1I,501
12,O=C(OCCF)[C@H]1[C@@H](c2cccc(/C=C/I)c2)C[C@@H]2CC[C@H]1N2,275
13,COC(=O)[C@H]1[C@@H](c2ccc(C)c(I)c2)C[C@@H]2CC[C@H]1N2,112
14,COC(=O)[C@H]1[C@@H](c2ccc(I)cc2)C[C@@H]2CC[C@H]1N2C/C=C/I,30.2
15,COC(=O)[C@H]1[C@@H](c2ccc(I)cc2)C[C@@H]2CC[C@H]1N2Cc1ccccc1,41.7
16,CC(C)OC(=O)[C@@H]1[C@@H](OC(c2ccc(F)cc2)c2ccc(F)cc2)C[C@H]2CC[C@@H]1N2C,30.9
17,CCCc1ccc([C@H]2C[C@@H]3CC[C@H]([C@H]2C(=O)OC)N3C)cc1,501
18,COC(=O)[C@H]1[C@@H](c2ccc(C(C)C)cc2)C[C@@H]2CC[C@H]1N2C,501
19,CCc1ccc([C@H]2C[C@@H]3CC[C@@H](N3)[C@H]2C(=O)OC)cc1I,263
20,C[C@H](CF)OC(=O)[C@H]1[C@@H](c2ccc(Cl)cc2)C[C@@H]2CC[C@H]1N2C,3.24
21,COC(=O)[C@H]1[C@@H](c2ccccc2)C[C@@H]2CC[C@H]1N2C/C=C/I,115
22,COC(=O)[C@H]1[C@@H](c2ccc(I)cc2)C[C@@H]2CC[C@H]1N2C,35.5
23,CCCc1ccc([C@H]2C[C@@H]3CC[C@H]([C@H]2C(=O)OC)N3C/C=C/I)cc1,372

row,SMILES,Ki [nM]
1,CCCCc1ccc([C@H]2C[C@@H]3CC[C@@H](N3)[C@H]2C(=O)OC)cc1I,372
2,CN1[C@H]2CC[C@@H]1[C@@H](C(=O)OCCc1ccccc1)[C@@H](c1ccc(Cl)c(Cl)c1)C2,11
3,CN1[C@H]2CC[C@@H]1[C@@H](C(=O)OCc1ccccc1)[C@@H](c1ccc(Cl)c(Cl)c1)C2,34.7
4,COC(=O)[C@H]1[C@@H](c2ccc(C)cc2)C[C@@H]2CC[C@H]1N2C/C=C/I,17
5,CCCCc1ccc([C@H]2C[C@@H]3CC[C@H]([C@H]2C(=O)OC)N3C)cc1I,372
6,CN1[C@@H]2CC[C@H]1[C@H](C(=O)OCc1ccccc1)[C@@H](OC(c1ccc(F)cc1)c1ccc(F)cc1)C2,49
7,C#CCN1[C@H]2CC[C@@H]1[C@@H](C(=O)OC)[C@@H](c1ccc(I)cc1)C2,14.1
8,COC(=O)[C@H]1[C@@H](c2ccc(C(C)C)cc2)C[C@@H]2CC[C@H]1N2C/C=C/I,372
9,O=C(OCCF)[C@H]1[C@@H](c2cccc(/C=C\I)c2)C[C@@H]2CC[C@H]1N2,89.1
10,COC(=O)[C@H]1[C@@H](c2ccc(I)cc2)C[C@@H]2CC[C@H]1N2Cc1ccccc1C,93.3
11,CCCCc1ccc([C@H]2C[C@@H]3CC[C@H]([C@H]2C(=O)OC)N3C)cc1,501
12,COC(=O)[C@H]1[C@@H](c2ccc(C(C)C)c(I)c2)C[C@@H]2CC[C@H]1N2,501
13,C[C@@H](CF)OC(=O)[C@H]1[C@@H](c2ccc(Cl)cc2)C[C@@H]2CC[C@H]1N2C,0.676
14,COC(=O)[C@H]1[C@@H](c2ccc(Cl)c(Cl)c2)C[C@@H]2CC[C@H]1N2C,6.31
15,Cc1ccc([C@H]2C[C@@H]3CC[C@H]([C@H]2C(=O)OCCF)N3C/C=C/I)cc1,12
16,COC(=O)[C@H]1[C@@H](c2ccc(F)cc2)C[C@@H]2CC[C@H]1N2CCF,70.8
17,COC(=O)[C@H]1[C@@H](c2ccc(C)c(I)c2)C[C@@H]2CC[C@H]1N2C,46.8
18,COC(=O)[C@H]1[C@@H](c2ccc(F)cc2)C[C@@H]2CC[C@H]1N2CCCF,47.9
19,C=C(Br)CN1[C@H]2CC[C@@H]1[C@@H](C(=O)OC)[C@@H](c1ccc(I)cc1)C2,30.2
20,COC(=O)[C@H]1[C@@H](c2ccccc2)C[C@@H]2CC[C@H]1N2C [TROPARIL],33.1
21,CN1[C@H]2CC[C@@H]1[C@@H](C(=O)OCCc1ccc(N=[N+]=[N-])c(I)c1)[C@@H](c1ccc(Cl)cc1)C2,14.1
22,CCc1ccc([C@H]2C[C@@H]3CC[C@H]([C@H]2C(=O)OC)N3C)cc1,501
23,COC(=O)[C@H]1[C@@H](c2ccc(C(C)C)c(I)c2)C[C@@H]2CC[C@H]1N2C,501

# Target: Sodium-dependent serotonin transporter (Homo sapiens, UniProt P31645)
# Sequence (P31645 whole entry): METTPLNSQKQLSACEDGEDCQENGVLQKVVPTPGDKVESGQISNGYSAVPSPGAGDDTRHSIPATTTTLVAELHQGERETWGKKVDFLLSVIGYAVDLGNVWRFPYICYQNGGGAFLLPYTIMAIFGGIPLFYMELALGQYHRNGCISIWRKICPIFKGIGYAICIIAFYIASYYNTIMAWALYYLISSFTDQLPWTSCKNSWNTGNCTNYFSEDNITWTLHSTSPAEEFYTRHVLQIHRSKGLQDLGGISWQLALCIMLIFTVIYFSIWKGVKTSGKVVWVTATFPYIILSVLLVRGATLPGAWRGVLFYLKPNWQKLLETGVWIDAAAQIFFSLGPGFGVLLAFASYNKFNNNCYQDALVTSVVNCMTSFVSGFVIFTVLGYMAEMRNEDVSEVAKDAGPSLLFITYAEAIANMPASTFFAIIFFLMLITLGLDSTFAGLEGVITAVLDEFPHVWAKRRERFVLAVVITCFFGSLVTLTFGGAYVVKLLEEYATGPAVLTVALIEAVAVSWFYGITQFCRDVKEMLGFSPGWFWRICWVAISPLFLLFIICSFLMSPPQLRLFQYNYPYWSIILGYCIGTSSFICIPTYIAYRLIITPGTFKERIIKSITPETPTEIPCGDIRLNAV
# Test: Displacement of [3H]Citalopram from human cloned SERT receptor expressed in HEK293 cells
# Assay type: cell-based
# Conditions: not given
row,SMILES,Ki [nM]
1,COC(=O)[C@H]1[C@@H](c2ccc(C)cc2)C[C@@H]2CC[C@H]1N2C/C(I)=C/C(F)(F)F,> 1000
2,COC(=O)[C@H]1[C@@H](c2ccc(C)cc2)C[C@@H]2CC[C@H]1N2C/C=C(\I)C(F)(F)F,251

# Target: Sodium-dependent noradrenaline transporter (Homo sapiens, UniProt P23975)
# Sequence (P23975 whole entry): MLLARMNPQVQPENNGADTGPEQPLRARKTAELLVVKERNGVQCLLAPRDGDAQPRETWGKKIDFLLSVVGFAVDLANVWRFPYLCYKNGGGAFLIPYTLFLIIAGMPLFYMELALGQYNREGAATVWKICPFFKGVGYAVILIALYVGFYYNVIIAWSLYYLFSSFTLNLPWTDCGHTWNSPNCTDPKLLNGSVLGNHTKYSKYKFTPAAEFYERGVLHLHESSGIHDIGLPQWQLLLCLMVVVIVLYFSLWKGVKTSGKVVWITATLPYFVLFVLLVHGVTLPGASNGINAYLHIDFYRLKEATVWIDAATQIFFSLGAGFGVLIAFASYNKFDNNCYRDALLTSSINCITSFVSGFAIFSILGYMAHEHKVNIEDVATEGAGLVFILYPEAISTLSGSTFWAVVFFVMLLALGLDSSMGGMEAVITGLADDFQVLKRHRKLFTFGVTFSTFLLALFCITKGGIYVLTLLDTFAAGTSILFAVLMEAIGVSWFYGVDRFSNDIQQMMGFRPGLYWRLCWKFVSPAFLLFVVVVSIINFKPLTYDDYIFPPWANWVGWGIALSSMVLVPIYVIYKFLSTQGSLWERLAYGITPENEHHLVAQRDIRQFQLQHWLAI
# Test: Displacement of [3H]nisoxetine from human cloned NET receptor expressed in HEK293 cells
# Assay type: cell-based
# Conditions: not given
row,SMILES,Ki [nM]
1,COC(=O)[C@H]1[C@@H](c2ccc(C)cc2)C[C@@H]2CC[C@H]1N2C/C(I)=C/C(F)(F)F,188
2,COC(=O)[C@H]1[C@@H](c2ccc(C)cc2)C[C@@H]2CC[C@H]1N2C/C=C/I,> 500
3,COC(=O)[C@H]1[C@@H](c2ccc(C)cc2)C[C@@H]2CC[C@H]1N2C/C=C(\I)C(F)(F)F,426

# Test system: not listed separately
# Test: Lipophilicity, log D of the compound in octanol-water at pH 7.4 by reverse-phase HPLC analysis
# Conditions: not given
row,SMILES,logD
1,COC(=O)[C@H]1[C@@H](c2ccc(C)cc2)C[C@@H]2CC[C@H]1N2C/C(I)=C/C(F)(F)F,5.5
2,Nc1ccccc1 [ANILINE],0.9
3,COC(=O)[C@H]1[C@@H](c2ccc(C)cc2)C[C@@H]2CC[C@H]1N2C/C=C/CF,4.1
4,c1ccc(-c2ccccc2)cc1 [BIPHENYL],4.01
5,COC(=O)[C@H]1[C@@H](c2ccc(C)cc2)C[C@@H]2CC[C@H]1N2C/C=C/I,4.9
6,ClCc1ccccc1 [(CHLOROMETHYL)BENZENE],2.3
7,Oc1ccc2ccccc2c1 [BETANAPHTHOL],2.7
8,COC(=O)[C@H]1[C@@H](c2ccc(C)cc2)C[C@@H]2CC[C@H]1N2C/C=C(\I)C(F)(F)F,5.3
9,O=[N+]([O-])c1cccc(O)c1 [3-NITRO-PHENOL],2

# Target: T2, Sodium-dependent dopamine transporter (Rattus norvegicus, UniProt P23977)
# T2 sequence (P23977 whole entry): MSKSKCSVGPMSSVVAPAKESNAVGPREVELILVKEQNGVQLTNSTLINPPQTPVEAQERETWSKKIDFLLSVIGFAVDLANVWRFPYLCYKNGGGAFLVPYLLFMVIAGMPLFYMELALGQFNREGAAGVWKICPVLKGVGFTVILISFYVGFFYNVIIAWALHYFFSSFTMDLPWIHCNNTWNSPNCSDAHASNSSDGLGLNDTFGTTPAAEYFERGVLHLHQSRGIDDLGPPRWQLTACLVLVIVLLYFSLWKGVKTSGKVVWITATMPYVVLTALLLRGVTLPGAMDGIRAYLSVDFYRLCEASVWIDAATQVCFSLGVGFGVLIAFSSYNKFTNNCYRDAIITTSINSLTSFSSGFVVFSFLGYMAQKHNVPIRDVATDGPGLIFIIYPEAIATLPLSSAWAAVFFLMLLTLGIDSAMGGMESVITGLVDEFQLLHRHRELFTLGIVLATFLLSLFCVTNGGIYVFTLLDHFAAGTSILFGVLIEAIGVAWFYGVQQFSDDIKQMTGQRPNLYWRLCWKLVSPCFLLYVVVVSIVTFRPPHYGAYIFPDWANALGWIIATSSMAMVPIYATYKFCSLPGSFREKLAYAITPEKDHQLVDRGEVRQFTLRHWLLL
# Test: Displacement of [3H]WIN35428 from rat cloned striatal DAT receptor
# Conditions: not given
SMILES,IC50 [nM],pIC50
Cc1ccc([C@H]2C[C@@H]3CC[C@H]([C@H]2C(=O)OC/C=C\I)N3C)cc1,39.8,–
CCOC(=O)[C@H]1[C@@H](c2ccc(C)cc2)C[C@@H]2CC[C@H]1N2Cc1ccc(F)cc1,29.5,–
CN1[C@H]2CC[C@@H]1[C@@H](c1nc(-c3ccccc3)no1)[C@@H](c1ccc(Cl)cc1)C2,794,–
CCOc1ccc([C@H]2C[C@@H]3CC[C@H]([C@H]2C(=O)OC)N3C)cc1,–,7.04
COC(=O)C1C2CCC(CC1c1ccc(Cl)c(Cl)c1)O2 (stereo not given),9.77,–
CCOC(=O)[C@H]1[C@@H](c2ccc(Cl)cc2)C[C@@H]2CC[C@H]1N2Cc1ccc(F)cc1,7.08,–
COc1ccc([C@H]2C[C@@H]3CC[C@H]([C@H]2C(=O)OC(C)C)N3C)cc1,–,7.85
COC(=O)[C@H]1[C@@H](c2ccccc2)C[C@@H]2CC[C@H]1N2CC#CCF,3.02,–
Cc1ccc([C@H]2C[C@@H]3CC[C@H]([C@H]2C(=O)OC/C=C/I)N3C)cc1,191,–
CN1[C@H]2CC[C@@H]1[C@@H](c1nnc(-c3ccccc3)o1)[C@@H](c1ccc(Cl)cc1)C2,2450,–
COC(=O)C1C2CCC(C2)CC1c1ccc(Cl)c(Cl)c1 (stereo not given),3.31,–

# Target: T2, Sodium-dependent dopamine transporter
# Test: Displacement of [3H]GBR-12935 from rat cloned striatal DAT receptor
# Conditions: not given
row,SMILES,IC50 [nM]
1,COC(=O)[C@H]1[C@@H](c2ccc(I)cc2)C[C@H]2N[C@@H]1C[C@H]2C,2450
2,COC(=O)[C@H]1[C@@H](c2ccc(I)cc2)C[C@@H]2[C@H](C)C[C@H]1N2C,794

# Species: Homo sapiens
# Test: Selectivity ratio of compound Ki for human cloned NET receptor to Ki for human DAT receptor
# Conditions: not given
row,SMILES,Ratio Ki
1,COC(=O)[C@H]1[C@@H](c2ccc(C)cc2)C[C@@H]2CC[C@H]1N2C/C(I)=C/C(F)(F)F,216

# Species: Homo sapiens
# Test: Selectivity ratio of compound Ki for human cloned SERT receptor to Ki for human DAT receptor
# Conditions: not given
row,SMILES,Ratio Ki
1,COC(=O)[C@H]1[C@@H](c2ccc(C)cc2)C[C@@H]2CC[C@H]1N2C/C(I)=C/C(F)(F)F,10000

# Target: T1, Sodium-dependent dopamine transporter
# Test: Ratio of PE2I Ki to compound Ki for human cloned DAT receptor
# Conditions: not given
row,SMILES,Ratio Ki
1,COC(=O)[C@H]1[C@@H](c2ccc(C)cc2)C[C@@H]2CC[C@H]1N2C/C(I)=C/C(F)(F)F,20

# Target: T1, Sodium-dependent dopamine transporter
# Test: Ratio of LBT999 Ki to compound Ki for human cloned DAT receptor
# Conditions: not given
row,SMILES,Ratio Ki
1,COC(=O)[C@H]1[C@@H](c2ccc(C)cc2)C[C@@H]2CC[C@H]1N2C/C(I)=C/C(F)(F)F,10

# Reference: ChEMBL document CHEMBL1944569, “QSAR study and synthesis of new phenyltropanes as ligands of the dopamine transporter (DAT)” (Bioorg Med Chem, 2012)
